Molecules are shown by their SMILES.

For this test, the target named is T1, IDH1 mutant (R132H) (Homo sapiens, UniProt O75874, R132H).
T1 construct: purchased BPS Bioscience 71099-2
T1 sequence (O75874 whole entry R132H): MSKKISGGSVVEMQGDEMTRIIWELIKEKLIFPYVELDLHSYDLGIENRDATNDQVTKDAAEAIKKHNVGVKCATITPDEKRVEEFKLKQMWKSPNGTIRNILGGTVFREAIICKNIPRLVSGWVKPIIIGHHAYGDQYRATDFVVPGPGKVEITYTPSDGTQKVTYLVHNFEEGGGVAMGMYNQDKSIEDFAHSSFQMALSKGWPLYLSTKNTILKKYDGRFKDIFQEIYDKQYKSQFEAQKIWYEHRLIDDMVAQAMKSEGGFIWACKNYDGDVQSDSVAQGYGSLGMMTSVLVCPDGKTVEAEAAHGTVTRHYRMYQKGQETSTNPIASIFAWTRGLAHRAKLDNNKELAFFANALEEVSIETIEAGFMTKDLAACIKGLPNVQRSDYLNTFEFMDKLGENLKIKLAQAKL
The experiment in a line: Mutant IDH1-R132H Fluorescence Assay (Resazurin based). Format: biochemical. Particulars: 10 nM IDH1 R132H, 4 mM α-ketoglutarate, NADPH, 1.5 h at room temperature. The protocol: IC50 values of compounds against IDH1 mutant (R132H) was determined by Resazurin based Fluorescence assay. Assays were performed in Buffer (25 mM Tris HCl, 150 mM NaCl, 10 mM MgCl2, 0.03% BSA, 2 mM 1-mercaptoethanol) where total reaction volume was 12.5 μL in low-volume 384-well plates (Cat #4511, Corning). Serially diluted compounds (3-fold) were incubated with cocktail of α-ketoglutarate (4 mM; Cat #75892-25G, Sigma), NADPH ([…]; Cat # N1630-100MG, Sigma) and buffer for 5 min, following IDH1 R132H mutant (10 nM; Cat #71099-2, BPS Bioscience) was added and incubated in dark at room temperature for 1.5 h. After 1.5 h, 6.25 μL detection solution containing Resazurin ([…]; (Cat #62758-13-8, Sigma) and Diaphorase (40 ug/ml; Cat # D2197-300UN, Sigma) in buffer was added and incubated for 15 min. Readings were taken in a Synergy Neo Plate reader (BioTek, Winooski) at single excitation of 540 nm and emission at 590 nm respectively.
The % (percent) activity of test samples was calculated as (Sample−Min)×100/(Max−Min). [Max: DMSO control, complete reaction with enzyme with DMSO and Min: No enzyme with DMSO]. Percent inhibition (100−% activity) was fitted to the “four-parameter logistic model” in XLfit for determination of IC50 values.
On the technique in general: Resazurin is reduced to fluorescent resorufin, in cell work by metabolically active cells.
For orientation: IC50 means the concentration at which inhibition is half-maximal. Consider `CC[C@H]1COC(=O)N1c1nc(C)nc(NC(C)(C)c2ccc(Oc3ccccc3)cc2)n1` [Compound 1.111, (S)-4-ethyl-3-(4-methyl-6-(2-(4-phenoxyphenyl)propan-2-ylamino)-1,3,5-triazin-2-yl)oxazolidin-2-one], for which the half-maximal inhibitory concentration (IC50) worked out at 2.51 µM.
Turning to `CC[C@H]1COC(=O)N1c1nc(C)nc(N[C@@H](C)c2ccc(Oc3cccnc3)cc2)n1` [Compound 1.74, (S)-4-ethyl-3-(4-methyl-6-((S)-1-(4-(pyridin-3-yloxy)phenyl)ethylamino)-1,3,5-triazin-2-yl)oxazolidin-2-one], the IC50 is above 30 µM.
In the case of `CC[C@H]1COC(=O)N1c1nc(C)nc(N[C@H](C)c2cc3cc(C)ccc3[nH]c2=O)n1` [Compound 1.109, (S)-4-ethyl-3-(4-methyl-6-((R)-1-(6-methyl-2-oxo-1,2-dihydroquinolin-3-yl)ethylamino)-1,3,5-triazin-2-yl)oxazolidin-2-one] it was above 30 µM.
Take `Cc1nc(N[C@H](C)c2cc3cc(Cl)ccc3[nH]c2=O)nc(N2C(=O)OC[C@@H]2[C@H](C)F)n1` [Compound 1.60, (R)-3-(4-((R)-1-(6-chloro-2-oxo-1,2-dihydroquinolin-3-yl)ethylamino)-6-methyl-1,3,5-triazin-2-yl)-4-((S)-1-fluoroethyl)oxazolidin-2-one]: the IC50 was above 30 µM.
Regarding `CC[C@H]1COC(=O)N1c1nc(C)nc(N[C@@H](C)c2ccc3c(-c4ccccc4)cn(C)c3c2)n1` [Compound 1.101, (S)-4-ethyl-3-(4-methyl-6-((S)-1-(1-methyl-3-phenyl-1H-indol-6-yl)ethylamino)-1,3,5-triazin-2-yl)oxazolidin-2-one], the IC50 came out at 13.6 µM.
As for `CC[C@H]1COC(=O)N1c1nc(C)nc(N[C@H](C)c2cc3cc(-c4ccc(Cl)cc4)ccc3[nH]c2=O)n1` [Compound 1.107, (S)-3-(4-((R)-1-(6-(4-chlorophenyl)-2-oxo-1,2-dihydroquinolin-3-yl)ethylamino)-6-methyl-1,3,5-triazin-2-yl)-4-ethyloxazolidin-2-one], the 50% inhibitory concentration (IC50) was above 30 µM.
In the case of `CC[C@H]1COC(=O)N1c1nc(C)nc(N[C@H](C)c2cc3cc(OC)ccc3[nH]c2=O)n1` [Compound 1.56, (S)-4-ethyl-3-(4-((R)-1-(6-methoxy-2-oxo-1,2-dihydroquinolin-3-yl)ethylamino)-6-methyl-1,3,5-triazin-2-yl)oxazolidin-2-one], the IC50 is above 30 µM.
Turning to `CC[C@H]1COC(=O)N1c1nc(C)nc(N[C@H](C)c2cn3cc(Br)ccc3n2)n1` [Compound 1.48, (S)-3-(4-((R)-1-(6-bromoimidazo[1,2-a]pyridin-2-yl)ethylamino)-6-methyl-1,3,5-triazin-2-yl)-4-ethyloxazolidin-2-one], the concentration for half-maximal inhibition (IC50) was above 30 µM.
In the case of `CC[C@H]1COC(=O)N1c1nc(C)nc(N[C@H](C)c2ccc(Oc3cccnc3C(F)(F)F)cc2)n1` [Compound 1.80, (S)-4-ethyl-3-(4-methyl-6-((R)-1-(4-(2-(trifluoromethyl)pyridin-3-yloxy)phenyl)ethylamino)-1,3,5-triazin-2-yl)oxazolidin-2-one], the half-maximal inhibitory concentration (IC50) worked out at 10.2 µM.
Take `CC[C@H]1COC(=O)N1c1nc(C)nc(N[C@H](C)c2ccc(OCc3ccccn3)cc2)n1` [Compound 1.61, (S)-4-ethyl-3-(4-methyl-6-((R)-1-(4-(pyridin-2-ylmethoxy)phenyl)ethylamino)-1,3,5-triazin-2-yl)oxazolidin-2-one]: the IC50 turned out to be 17 µM.
Then `CC[C@H]1COC(=O)N1c1nc(C)nc(N[C@H](C)c2cc3cc(Br)ccc3[nH]c2=O)n1` [Compound 1.67, (S)-3-(4-((R)-1-(6-bromo-2-oxo-1,2-dihydroquinolin-3-yl)ethylamino)-6-methyl-1,3,5-triazin-2-yl)-4-ethyloxazolidin-2-one], with 12.3 µM; and `CC[C@H]1COC(=O)N1c1nc(C)nc(N[C@H](C)c2ccc(Nc3ccccc3)cc2)n1` [Compound 1.88, (S)-4-ethyl-3-(4-methyl-6-((R)-1-(4-(phenylamino)phenyl)ethylamino)-1,3,5-triazin-2-yl)oxazolidin-2-one], with above 30 µM; and `CC[C@H]1COC(=O)N1c1nc(C)nc(N[C@@H](C)c2ccc(OCc3ccccn3)cc2)n1` [Compound 1.62, (S)-4-ethyl-3-(4-methyl-6-((S)-1-(4-(pyridin-2-ylmethoxy)phenyl)ethylamino)-1,3,5-triazin-2-yl)oxazolidin-2-one], with 3.29 µM.
For `CC(C)[C@H]1COC(=O)N1c1ncnc(N[C@@H](C)c2ccccn2)n1` [Compound 1.30, (S)-4-isopropyl-3-(4-((S)-1-(pyridin-2-yl)ethylamino)-1,3,5-triazin-2-yl)oxazolidin-2-one], the 50% inhibitory concentration (IC50) is above 30 µM.
For `CC[C@H]1COC(=O)N1c1nc(C)nc(NCc2cc3cc(Cl)ccc3[nH]c2=O)n1` [Compound 1.57, (S)-3-(4-((6-chloro-2-oxo-1,2-dihydroquinolin-3-yl)methylamino)-6-methyl-1,3,5-triazin-2-yl)-4-ethyloxazolidin-2-one], the half-inhibitory concentration (IC50) turned out to be 2.07 µM.
`CC[C@H]1COC(=O)N1c1nc(C)nc(N[C@H](C)c2cc3cc(Cl)c(OC)cc3[nH]c2=O)n1` [Compound 1.43, (S)-3-(4-((R)-1-(6-chloro-7-methoxy-2-oxo-1,2-dihydroquinolin-3-yl)ethylamino)-6-methyl-1,3,5-triazin-2-yl)-4-ethyloxazolidin-2-one]: the IC50 was determined as 6.83 µM.
As to `CC[C@H]1COC(=O)N1c1nc(C)nc(N[C@H](C)c2ccc(C(=O)Nc3ccccc3)cc2)n1` [Compound 1.102, 4-((R)-1-(4-((S)-4-ethyl-2-oxooxazolidin-3-yl)-6-methyl-1,3,5-triazin-2-ylamino)ethyl)-N-phenylbenzamide], the IC50 is above 30 µM.
With `CC(C)[C@H]1COC(=O)N1c1ncnc(N[C@H](C)c2ccc(Oc3ccccc3)cc2)n1` [Compound 1.8, (S)-4-isopropyl-3-(4-((R)-1-(4-phenoxyphenyl)ethylamino)-1,3,5-triazin-2-yl)oxazolidin-2-one], the IC50 is above 30 µM.
For `CC[C@H]1COC(=O)N1c1nc(N[C@@H](C)c2ccc(Oc3ccccc3)cc2)nc(C2CC2)n1` [Compound 1.71, (S)-3-(4-cyclopropyl-6-((S)-1-(4-phenoxyphenyl)ethylamino)-1,3,5-triazin-2-yl)-4-ethyloxazolidin-2-one], the IC50 is 2.44 µM.
Turning to `CC[C@H]1COC(=O)N1c1nc(C)nc(N[C@@H](C)c2cc3cc(Cl)cnc3[nH]c2=O)n1` [Compound 1.49, (S)-3-(4-((S)-1-(6-chloro-2-oxo-1,2-dihydro-1,8-naphthyridin-3-yl)ethylamino)-6-methyl-1,3,5-triazin-2-yl)-4-ethyloxazolidin-2-one], the IC50 is above 30 µM.
In the case of `CC[C@H]1COC(=O)N1c1nc(C)nc(N[C@H](C)c2cc3ccccc3[nH]c2=O)n1` [Compound 1.46, (S)-4-ethyl-3-(4-methyl-6-((R)-1-(2-oxo-1,2-dihydroquinolin-3-yl)ethylamino)-1,3,5-triazin-2-yl) oxazolidin-2-one], the IC50 was above 30 µM.
`CC[C@H]1COC(=O)N1c1nc(C)nc(N[C@H](C)c2ccc(CN3CCN(C(C)=O)CC3)cc2)n1` [Compound 1.99, (S)-3-(4-((R)-1-(4-((4-acetylpiperazin-1-yl)methyl)phenyl)ethylamino)-6-methyl-1,3,5-triazin-2-yl)-4-ethyloxazolidin-2-one]: the half-inhibitory concentration (IC50) was above 30 µM.
Consider `CC[C@H]1COC(=O)N1c1nc(C)nc(N[C@@H](C)c2ccc(-c3ccc(F)c(C)c3)cn2)n1` [Compound 1.68, (S)-4-ethyl-3-(4-((S)-1-(5-(4-fluoro-3-methylphenyl)pyridin-2-yl)ethylamino)-6-methyl-1,3,5-triazin-2-yl)oxazolidin-2-one], for which the 50% inhibitory concentration (IC50) turned out to be 1.58 µM.
Consider `CC[C@H]1COC(=O)N1c1nc(C)nc(N[C@@H](C)c2ccc(Oc3ccc(Cl)cc3)nc2OC)n1` [Compound 1.87, (S)-3-(4-((S)-1-(6-(4-chlorophenoxy)-2-methoxypyridin-3-yl)ethylamino)-6-methyl-1,3,5-triazin-2-yl)-4-ethyloxazolidin-2-one], for which the IC50 is 8.82 µM.
Consider `CC[C@H]1COC(=O)N1c1nc(C)nc(N[C@@H](C)c2cc3cc(C)ccc3[nH]c2=O)n1` [Compound 1.108, (S)-4-ethyl-3-(4-methyl-6-((S)-1-(6-methyl-2-oxo-1,2-dihydroquinolin-3-yl)ethylamino)-1,3,5-triazin-2-yl)oxazolidin-2-one], for which the concentration for half-maximal inhibition (IC50) is 1.27 µM.
As to `CC[C@H]1COC(=O)N1c1nc(C)nc(N[C@@H](C)c2cn3cc(Br)ccc3n2)n1` [Compound 1.47, (S)-3-(4-((S)-1-(6-bromoimidazo[1,2-a]pyridin-2-yl)ethylamino)-6-methyl-1,3,5-triazin-2-yl)-4-ethyloxazolidin-2-one], the half-inhibitory concentration (IC50) amounted to 3.18 µM.
`CC[C@H]1COC(=O)N1c1nc(C)nc(N[C@H](C)c2ccc(Oc3ccc4ccccc4c3)cc2)n1` [Compound 1.93, (S)-4-ethyl-3-(4-methyl-6-((R)-1-(4-(naphthalen-2-yloxy)phenyl)ethylamino)-1,3,5-triazin-2-yl)oxazolidin-2-one]: the IC50 is above 30 µM.

These data come from patent publication US20200206233A1 (INTEGRAL BIOSCIENCES PRIVATE LIMITED, priority 2018, published 2020).
